In the test the target is Muscarinic acetylcholine receptor M1 (Rattus norvegicus) (UniProt P08482). Kind of test: rat M1 positive allosteric modulator potency, dose response, cell-based, calcium mobilization, CHO-K1, ACh EC20 (AID 2425). To be noted: CHO-K1 rat M1, Fluo-4 calcium, PAM with ACh EC20. (A change in cytosolic calcium serves as a functional read-out for many receptors and channels.)

Experimental findings from PubChem BioAssay AID2425 (Vanderbilt High Throughput Screening Facility, 2010) are described below.

Molecules are shown by their SMILES. Active and inactive are the calls of the source.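 How the source made its calls: active means fitted dose-response curve with goodness of fit R² above 0.5; inactive means the rest.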

As usually defined, the EC50 is the concentration needed to bring the measured effect to its halfway point.

Muscarinic acetylcholine receptor M1 (Rattus norvegicus), sequence (P08482 whole entry, looked up): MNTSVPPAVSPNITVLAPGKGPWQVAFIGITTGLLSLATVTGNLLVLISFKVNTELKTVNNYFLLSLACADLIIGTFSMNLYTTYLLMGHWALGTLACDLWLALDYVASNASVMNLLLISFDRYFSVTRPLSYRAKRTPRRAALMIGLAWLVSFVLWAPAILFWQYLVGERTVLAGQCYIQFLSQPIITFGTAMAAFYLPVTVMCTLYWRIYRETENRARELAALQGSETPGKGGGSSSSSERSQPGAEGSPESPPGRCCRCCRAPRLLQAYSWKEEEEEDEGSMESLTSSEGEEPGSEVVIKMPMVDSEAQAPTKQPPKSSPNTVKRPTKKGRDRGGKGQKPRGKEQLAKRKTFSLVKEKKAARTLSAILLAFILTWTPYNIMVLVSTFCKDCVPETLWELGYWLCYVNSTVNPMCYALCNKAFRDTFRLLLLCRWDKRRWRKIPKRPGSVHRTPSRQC

As for `O=C1C(=O)N(Cc2ccc(Oc3ccccc3)cc2)c2ccc(OC(F)(F)F)cc21`, the “potentiation, % max ACh” value (at 30 µM (top of the series)) is “inactive”.

On to `Cc1cc(NC(=O)CS(=O)(=O)c2cn(Cc3cccc(Cl)c3)c3ccccc23)no1`, for which the EC50 was 5.86 µM.
